Here are results for 32 compounds from patent US20230150924A1, “NOVEL COMPOUND HAVING CANCER METASTASIS INHIBITORY ACTIVITY, PREPARATION METHOD THEREFOR, AND PHARMACEUTICAL COMPOSITION FOR INHIBITING CANCER METASTASIS AND INVASION OR TREATING COLORECTAL CANCER, COMPRISING COMPOUND” (CELLGENTEK CO., LTD., priority 2019, published 2023).

The subject of test [1] is invasion of colorectal cancer cells. In words: In vivo relative invation (invasion; EV and KITENIN controls, no method described). Particulars: relative to EV (=1); KIT = KITENIN.
In the next test the test system is KAI1 promoter. In words: KAI1 promoter luciferase reporter assay in transfected Caco2 cells. In kind it is cell-based, human. The conditions noted are these: Homo sapiens, Caco-2, 16 h, read-out: Relative KAI promoter activity. The protocol: Experiments were conducted to evaluate the metastasis-related promoter activity-increasing effects of the compounds according to the present invention. Specifically, the KAI1 promoter reporter vector was used. In this case, the pRL-TK vector, a vector expressing renilla luciferase, was used as an internal control indicating the transfection efficiency in each transfected well.
First, 24 hours before transfection, 2×10^6 human colon cancer cell line, Caco2) cells were cultured in 10 ml of DMEM containing 10% FBS and 1% penicillin/streptomycin on a 100-mm-diameter plate, and then transformed with 5 μg of a pRL-TK vector mixture containing a transfection reagent and the KAI1 promoter, and then cultured in a 5% CO2 incubator at 37° C. for 48 hours. Thereafter, the adherent cells were detached using trypsin and counted using a hemacytometer, and then 5×10^3 transfected Caco2 cells in 100 μl of DMEM containing 10% FBS and 1% penicillin/streptomycin were seeded into each well of a 96-well plate and cultured in a 5% CO2 incubator at 37° C. for 24 hours. Next, 1 μM of each of the 305 compounds prepared in Examples 1 to 305 was added to each well, and after 16 hours, 100 μl of a lysis buffer for analysis containing a luciferase substrate was added, and the cells were lysed with stirring for 20 minutes. After completion of lysis, the cells were measured for luciferase activity using a luciferase reporter assay system (Promega, USA). […] In addition, data were analyzed at a significance level of p<0.05 by one-way ANOVA (Tukey's HSD), and SPSS 17.0 (Chicago, USA) statistical program was used. In Table 14 to 20, PHA is the PHA-665752, and KIT is KITENIN.
For orientation: A reporter such as luciferase makes a cellular process visible.

[2] abbreviates: 1 μM compound, 16 hours, transfected Caco2 cells, luciferase activity relative to DMSO control (=1).

SMILES strings stand for the structures. Like-named read-outs stand apart in the source and are kept apart here.

In the case of `O=C(CNC(=O)c1ccccc1F)c1cccnc1` [Example 132, 2-fluoro-N-(2-oxo-2-(pyridin-3-yl)ethyl)benzamide], the “In vivo relative invation” value in test [1] is 1.226. The fold induction at 1 µM in the test with KAI1 promoter (setting [2]) stood at 1.18.
In the same order, the values of `O=C(CNC(=O)c1ccc(CN2CCc3ccccc3C2)cc1)c1ccccc1` [Example 254, 4-((3,4-dihydroisoquinolin-2(1H)-yl)methyl)-N-(2-oxo-2-phenylethyl)benzamide] are 0.9143 and 2.08.
The corresponding values for `O=C(CNC(=O)c1ccccc1CN1CCN(c2ncccn2)CC1)c1ccccc1` [Example 300, N-(2-oxo-2-phenylethyl)-2-((4-(pyrimidin-2-yl)piperazin-1-yl)methyl)benzamide] are 0.9869 and 1.91.
The corresponding values for `O=C(CNC(=O)c1ccccc1OC1CCN(C(=O)c2ccc(F)c(F)c2)CC1)c1ccccc1` [Example 196, 2-((1-(3,4-difluorobenzoyl)piperidin-4-yl)oxy)-N-(2-oxo-2-phenylethyl)benzamide] are 1.113 and 0.84.
As to `Cc1ccc(S(=O)(=O)N2CCC(Oc3ccccc3C(=O)NCC(=O)c3ccccc3)CC2)cc1` [Example 185, N-(2-oxo-2-phenylethyl)-2-((1-tosylpiperidin-4-yl)oxy)benzamide], in test [1], the “In vivo relative invation” value amounted to 1.114. In addition, the fold induction at 1 µM with KAI1 promoter (setting [2]) stood at 1.12.
Take `COc1cccc(C(=O)CNC(=O)C2CC2)c1` [Example 125, N-(2-(3-methoxyphenyl)-2-oxoethyl)cyclopropanecarboxamide]: the “In vivo relative invation” value in test [1] was determined as 0.8965. In the test on KAI1 promoter (setting [2]), the fold induction at 1 µM was 1.48.
The corresponding values for `COc1ccccc1C(=O)N1CCC(Oc2ccccc2C(=O)NCC(=O)c2ccccc2)CC1` [Example 162, 2-((1-(2-methoxybenzoyl)piperidin-4-yl)oxy)-N-(2-oxo-2-phenylethyl)benzamide] are 1.043 and 0.99.
The corresponding values for `CN1CCN(Cc2cccc(C(=O)NCC(=O)c3ccccc3)c2)CC1` [Example 253, 3-((4-methylpiperazin-1-yl)methyl)-N-(2-oxo-2-phenylethyl)benzamide] are 1.421 and 0.963.
In the same order, the values of `O=C(COc1ccccc1C(=O)NCC(=O)c1ccccc1)Nc1cccc(O)c1` [Example 223, 2-(2-((3-hydroxyphenyl)amino)-2-oxoethoxy)-N-(2-oxo-2-phenylethyl)benzamide] are 1.195 and 1.1.
For the compound `CN(C)c1ccc(C(=O)CNS(=O)(=O)c2ccccc2)cc1` [Example 109, N-(2-(4-(dimethylamino)phenyl)-2-oxoethyl)benzenesulfonamide], the “In vivo relative invation” value in test [1] came out at 0.9054. The fold induction at 1 µM in the test with KAI1 promoter (setting [2]) amounted to 2.89.
With `CCCCCN(CCCCC)Cc1cccc(C(=O)NCC(=O)c2cccc(OC)c2)c1` [Example 291, 3-((dipentylamino)methyl)-N-(2-(3-methoxyphenyl)-2-oxoethyl)benzamide], in test [1], the “In vivo relative invation” value was found to be 1.126. For the same compound, the fold induction at 1 µM in the test with KAI1 promoter (setting [2]) was determined as 1.62.
The corresponding values for `O=C(CNC(=O)c1ccc(CN2CCN(c3ccc([N+](=O)[O-])cc3)CC2)cc1)c1ccccc1` [Example 261, 4-((4-(4-nitrophenyl)piperazin-1-yl)methyl)-N-(2-oxo-2-phenylethyl)benzamide] are 1.197 and 1.25.
In the case of `CCC(=O)NCC(=O)c1ccc(N2CCOCC2)cc1` [Example 142, N-(2-(4-morpholinophenyl)-2-oxoethyl)propionamide], the “In vivo relative invation” value in test [1] was found to be 1.8. Also, the fold induction at 1 µM in the test on KAI1 promoter (setting [2]) worked out at 1.12.
The corresponding values for `O=C(CNS(=O)(=O)Cc1ccccc1)c1ccc(N2CCOCC2)cc1` [Example 149, N-(2-(4-morpholinophenyl)-2-oxoethyl)-1-phenylmethanesulfonamide] are 1.261 and 1.07.
In the same order, the values of `O=C(CNC(=O)c1cc(Cl)cc(Cl)c1)c1ccccc1` [Example 36, 3,5-dichloro-N-(2-oxo-2-phenylethyl)benzamide] are 1.056 and 1.16.
The corresponding values for `CN(C)c1ccc(C(=O)CNC(=O)c2ccc(Cl)cc2)cc1` [Example 88, 4-chloro-N-(2-(4-(dimethylamino)phenyl)-2-oxoethyl)benzamide] are 0.9216 and 1.35.
Turning to `CC(C)(C)C(=O)NCC(=O)c1ccccc1` [Example 24, N-(2-oxo-2-phenylethyl)pivalamide], the “In vivo relative invation” value in test [1] was found to be 1.128. Besides, the fold induction at 1 µM with KAI1 promoter (setting [2]) came to 0.84.
The corresponding values for `O=C(CNC(=O)c1ccccc1C(F)(F)F)c1ccc(Cl)cc1` [Example 73, N-(2-(4-chlorophenyl)-2-oxoethyl)-2-(trifluoromethyl)benzamide] are 1.116 and 0.99.
`O=C(CNC(=O)c1ccc(F)cc1Cl)c1ccccc1` [Example 33, 2-chloro-4-fluoro-N-(2-oxo-2-phenylethyl)benzamide]: the “In vivo relative invation” value in test [1] is listed as 0.7513. For the same compound, in the test on KAI1 promoter (setting [2]), the fold induction at 1 µM came out at 1.78.
In the same order, the values of `CC(C)(C)C(=O)NCC(=O)c1ccc(Cl)cc1` [Example 66, N-(2-(4-chlorophenyl)-2-oxoethyl)pivalamide] are 1.168 and 0.87.
The corresponding values for `O=C(CNC(=O)C1CC1)c1ccccc1` [Example 16, N-(2-oxo-2-phenylethyl)cyclopropanecarboxamide] are 0.9645 and 0.92.
The corresponding values for `Cc1cccc(C(=O)NCC(=O)c2ccc(N(C)C)cc2)c1` [Example 98, N-(2-(4-(dimethylamino)phenyl)-2-oxoethyl)-3-methylbenzamide] are 1.121 and 2.64.
Turning to `COc1ccc(S(=O)(=O)NCC(=O)c2ccc(N3CCOCC3)cc2)cc1` [Example 150, 4-methoxy-N-(2-(4-morpholinophenyl)-2-oxoethyl)benzenesulfonamide], the “In vivo relative invation” value in test [1] is 1.071. For the same compound, the fold induction at 1 µM in the test on KAI1 promoter (setting [2]) was determined as 1.14.
For the compound `O=C(CNC(=O)c1ccccc1Cl)c1ccccc1` [Example 6, 2-chloro-N-(2-oxo-2-phenylethyl)benzamide], the “In vivo relative invation” value in test [1] is listed as 1.144. The fold induction at 1 µM with KAI1 promoter was found to be 1.91.
Regarding `COc1cccc(C(=O)CNC(=O)c2cccc(CC3CCN(c4ccccc4F)CC3)c2)c1` [Example 281, 3-((1-(2-fluorophenyl)piperidin-4-yl)methyl)-N-(2-(3-methoxyphenyl)-2-oxoethyl)benzamide], the “In vivo relative invation” value in test [1] was determined as 1.236. For the same compound, in the test on KAI1 promoter (setting [2]), the fold induction at 1 µM is 1.52.
For the compound `O=C(CNC(=O)C1CC1)c1ccc(N2CCOCC2)cc1` [Example 143, N-(2-(4-morpholinophenyl)-2-oxoethyl)cyclopropanecarboxamide], the “In vivo relative invation” value in test [1] is 0.8028. In addition, in the test with KAI1 promoter (setting [2]), the fold induction at 1 µM was 1.16.
For the compound `CN(CCO)Cc1cccc(C(=O)NCC(=O)c2ccccc2)c1` [Example 243, 3-(((2-hydroxyethyl) (methyl)amino)methyl)-N-(2-oxo-2-phenylethyl)benzamide], in test [1], the “In vivo relative invation” value was determined as 1.105. Besides, in the test on KAI1 promoter (setting [2]), the fold induction at 1 µM turned out to be 1.48.
In the case of `Cc1ccccc1C(=O)NCC(=O)c1ccc(Cl)cc1` [Example 51, N-(2-(4-chlorophenyl)-2-oxoethyl)-2-methylbenzamide], the “In vivo relative invation” value in test [1] came to 1.513. Besides, in the test on KAI1 promoter (setting [2]), the fold induction at 1 µM was 1.81.
In the case of `Cc1cccc(C(=O)NCC(=O)c2ccc(Cl)cc2)c1` [Example 53, N-(2-(4-chlorophenyl)-2-oxoethyl)-3-methylbenzamide], the “In vivo relative invation” value in test [1] stood at 0.9411. In addition, the fold induction at 1 µM in the test on KAI1 promoter (setting [2]) turned out to be 2.02.
The corresponding values for `COc1cccc(C(=O)CNC(=O)c2cccc(CN3CCN(c4ccccc4OC)CC3)c2)c1` [Example 282, N-(2-(3-methoxyphenyl)-2-oxoethyl)-3-((4-(2-methoxyphenyl)piperazin-1-yl)methyl)benzamide] are 1.214 and 1.47.
The corresponding values for `O=C(CNC(=O)c1ccccc1OC1CCN(S(=O)(=O)c2ccc(F)cc2)CC1)c1ccccc1` [Example 184, 2-((1-((4-fluorophenyl)sulfonyl)piperidin-4-yl)oxy)-N-(2-oxo-2-phenylethyl)benzamide] are 1.114 and 0.98.
The corresponding values for `CCCNC(=O)COc1ccccc1C(=O)NCC(=O)c1ccccc1` [Example 228] are 1.278 and 0.982.
